Data set [1] in a line: Cysteine reactivity assessed as cysteine oxidation. It counts as physicochemical.
The nature of data set [2]: Half life in mouse at 20 mg/kg, ip. It counts as ADME, organism-based. The note with it: in vivo.
The target in data set [3] is T1, Phosphatidylinositol 4,5-bisphosphate 3-kinase catalytic subunit delta isoform (Homo sapiens, UniProt O00329).
T1 sequence (O00329 whole entry): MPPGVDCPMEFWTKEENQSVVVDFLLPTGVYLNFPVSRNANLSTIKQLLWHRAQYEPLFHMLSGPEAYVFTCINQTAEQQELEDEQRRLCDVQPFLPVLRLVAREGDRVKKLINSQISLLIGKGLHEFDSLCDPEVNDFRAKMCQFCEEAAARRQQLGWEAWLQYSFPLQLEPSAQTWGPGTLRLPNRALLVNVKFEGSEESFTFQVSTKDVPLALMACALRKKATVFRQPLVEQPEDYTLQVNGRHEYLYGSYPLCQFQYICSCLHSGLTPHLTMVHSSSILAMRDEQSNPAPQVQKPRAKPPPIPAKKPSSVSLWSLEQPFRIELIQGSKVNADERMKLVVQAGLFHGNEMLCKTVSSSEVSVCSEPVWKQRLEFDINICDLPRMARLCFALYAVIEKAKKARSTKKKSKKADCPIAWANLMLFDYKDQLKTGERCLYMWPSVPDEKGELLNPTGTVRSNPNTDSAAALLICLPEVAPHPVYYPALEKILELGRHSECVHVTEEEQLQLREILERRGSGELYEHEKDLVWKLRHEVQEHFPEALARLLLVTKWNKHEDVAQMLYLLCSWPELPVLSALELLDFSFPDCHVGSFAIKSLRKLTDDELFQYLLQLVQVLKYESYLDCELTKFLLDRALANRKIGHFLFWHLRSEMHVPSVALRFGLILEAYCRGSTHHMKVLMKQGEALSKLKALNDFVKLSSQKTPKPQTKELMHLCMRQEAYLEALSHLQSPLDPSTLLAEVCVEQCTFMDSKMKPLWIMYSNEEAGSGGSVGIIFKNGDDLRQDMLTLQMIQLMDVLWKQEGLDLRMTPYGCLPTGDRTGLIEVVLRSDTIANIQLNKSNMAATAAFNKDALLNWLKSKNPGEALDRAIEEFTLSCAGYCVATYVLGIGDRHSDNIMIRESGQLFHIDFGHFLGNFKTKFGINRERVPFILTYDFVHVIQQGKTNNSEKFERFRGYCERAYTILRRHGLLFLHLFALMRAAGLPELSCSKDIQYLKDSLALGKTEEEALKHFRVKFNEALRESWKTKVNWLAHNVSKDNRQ
The data set is described as follows: (§1) Inhibition of PI3Kdelta (unknown origin).

The target in data set [4] is T2, Phosphatidylinositol 4,5-bisphosphate 3-kinase catalytic subunit delta isoform (Homo sapiens) (UniProt O00329).
T2 sequence (whole entry): T1 sequence (O00329 whole entry)
The data set is described as §1.

Data set [5] has as its target Glutathione S-transferase P (Homo sapiens) (UniProt P09211). The data set is described as follows: Inhibition of GSTP1 (unknown origin) assessed as ratio of Kinact to Ki by MS/MS analysis.
For another data set, the target named is T3, m7GpppX diphosphatase (Homo sapiens, UniProt Q96C86).
T3 sequence (Q96C86 whole entry): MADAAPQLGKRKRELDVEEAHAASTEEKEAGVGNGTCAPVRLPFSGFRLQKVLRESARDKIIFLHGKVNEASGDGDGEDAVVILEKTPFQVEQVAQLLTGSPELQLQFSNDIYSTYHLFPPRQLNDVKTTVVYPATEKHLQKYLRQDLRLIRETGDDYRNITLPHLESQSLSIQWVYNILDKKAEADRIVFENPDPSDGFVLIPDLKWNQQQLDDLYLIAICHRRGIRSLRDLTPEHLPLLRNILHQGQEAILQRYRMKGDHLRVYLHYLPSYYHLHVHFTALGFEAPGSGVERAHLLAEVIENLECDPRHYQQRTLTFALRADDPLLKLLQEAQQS
The data set is described as follows: Inhibition of DcpS (unknown origin) using m7GpppA as substrate by ELISA. (An ELISA detects its analyte on a solid surface through an enzyme-linked reagent.)

The nature of data set [6]: Dissociation constant, pKa of the compound. It counts as physicochemical.
In data set [7] the test system is Mycobacterium tuberculosis. As to the kind of experiment: Inhibition of Mycobacterium tuberculosis ICL1 assessed as ratio of Kinact to Ki.
Data set [8] has as its system Hsp90 (human). The data set is described as follows: Inhibition of human Hsp90 assessed as ratio of Kinact to Ki by MS/MS analysis.
Data set [9] has as its system Hsp90 (human). As to the kind of experiment: Inhibition of human Hsp90 by MS/MS analysis.
Data set [10] has as its target T4, Induced myeloid leukemia cell differentiation protein Mcl-1 (Homo sapiens, UniProt Q07820). The data set is described as follows: Binding kinetics to MCl-1 (unknown origin) assessed as dissociation rate constant for state two.
For data set [11], the target named is T4, Induced myeloid leukemia cell differentiation protein Mcl-1. As to the kind of experiment: Binding kinetics to MCl-1 (unknown origin) assessed as dissociation rate constant for state one.
Data set [12] can be described thus: Half life in plasma (unknown origin). It counts as ADME, cell-free.
A short description of another data set: cells. The following applies: Homo sapiens, MOLP-8.
Data set [13] has as its target Serine/threonine-protein kinase PLK1 (Homo sapiens, UniProt P53350). As to the kind of experiment: Inhibition of PLK1 (unknown origin).
For the next data set, the target named is SRSF protein kinase 1 (Homo sapiens, UniProt Q96SB4). As to the kind of experiment: Inhibition of SRPK1 (unknown origin) by TR-FRET assay.
Sequence of SRSF protein kinase 1 (Q96SB4 whole entry): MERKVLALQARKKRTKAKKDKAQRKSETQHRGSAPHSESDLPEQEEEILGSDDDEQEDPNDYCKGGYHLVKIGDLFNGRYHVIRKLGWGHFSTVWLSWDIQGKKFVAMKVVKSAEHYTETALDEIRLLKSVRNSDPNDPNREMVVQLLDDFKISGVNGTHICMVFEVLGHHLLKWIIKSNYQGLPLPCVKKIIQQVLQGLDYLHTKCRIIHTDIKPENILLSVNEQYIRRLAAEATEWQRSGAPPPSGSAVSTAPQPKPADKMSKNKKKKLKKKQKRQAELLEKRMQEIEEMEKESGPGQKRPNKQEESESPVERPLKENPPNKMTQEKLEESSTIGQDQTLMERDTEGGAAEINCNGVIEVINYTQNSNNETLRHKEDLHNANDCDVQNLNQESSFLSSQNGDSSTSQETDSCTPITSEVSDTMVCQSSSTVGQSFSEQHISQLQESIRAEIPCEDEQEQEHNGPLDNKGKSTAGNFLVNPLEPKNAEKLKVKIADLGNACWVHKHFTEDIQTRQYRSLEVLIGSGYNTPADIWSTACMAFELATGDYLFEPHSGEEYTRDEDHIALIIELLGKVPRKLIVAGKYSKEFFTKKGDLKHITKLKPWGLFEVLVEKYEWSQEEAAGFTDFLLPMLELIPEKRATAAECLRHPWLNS
Data set [14] is described as follows: Inhibition of PLK1 C675 mutant (unknown origin). Also on record: species or system Homo sapiens.
The target in data set [15] is ALK tyrosine kinase receptor (Homo sapiens, UniProt Q9UM73).
Sequence of ALK tyrosine kinase receptor (Q9UM73 whole entry): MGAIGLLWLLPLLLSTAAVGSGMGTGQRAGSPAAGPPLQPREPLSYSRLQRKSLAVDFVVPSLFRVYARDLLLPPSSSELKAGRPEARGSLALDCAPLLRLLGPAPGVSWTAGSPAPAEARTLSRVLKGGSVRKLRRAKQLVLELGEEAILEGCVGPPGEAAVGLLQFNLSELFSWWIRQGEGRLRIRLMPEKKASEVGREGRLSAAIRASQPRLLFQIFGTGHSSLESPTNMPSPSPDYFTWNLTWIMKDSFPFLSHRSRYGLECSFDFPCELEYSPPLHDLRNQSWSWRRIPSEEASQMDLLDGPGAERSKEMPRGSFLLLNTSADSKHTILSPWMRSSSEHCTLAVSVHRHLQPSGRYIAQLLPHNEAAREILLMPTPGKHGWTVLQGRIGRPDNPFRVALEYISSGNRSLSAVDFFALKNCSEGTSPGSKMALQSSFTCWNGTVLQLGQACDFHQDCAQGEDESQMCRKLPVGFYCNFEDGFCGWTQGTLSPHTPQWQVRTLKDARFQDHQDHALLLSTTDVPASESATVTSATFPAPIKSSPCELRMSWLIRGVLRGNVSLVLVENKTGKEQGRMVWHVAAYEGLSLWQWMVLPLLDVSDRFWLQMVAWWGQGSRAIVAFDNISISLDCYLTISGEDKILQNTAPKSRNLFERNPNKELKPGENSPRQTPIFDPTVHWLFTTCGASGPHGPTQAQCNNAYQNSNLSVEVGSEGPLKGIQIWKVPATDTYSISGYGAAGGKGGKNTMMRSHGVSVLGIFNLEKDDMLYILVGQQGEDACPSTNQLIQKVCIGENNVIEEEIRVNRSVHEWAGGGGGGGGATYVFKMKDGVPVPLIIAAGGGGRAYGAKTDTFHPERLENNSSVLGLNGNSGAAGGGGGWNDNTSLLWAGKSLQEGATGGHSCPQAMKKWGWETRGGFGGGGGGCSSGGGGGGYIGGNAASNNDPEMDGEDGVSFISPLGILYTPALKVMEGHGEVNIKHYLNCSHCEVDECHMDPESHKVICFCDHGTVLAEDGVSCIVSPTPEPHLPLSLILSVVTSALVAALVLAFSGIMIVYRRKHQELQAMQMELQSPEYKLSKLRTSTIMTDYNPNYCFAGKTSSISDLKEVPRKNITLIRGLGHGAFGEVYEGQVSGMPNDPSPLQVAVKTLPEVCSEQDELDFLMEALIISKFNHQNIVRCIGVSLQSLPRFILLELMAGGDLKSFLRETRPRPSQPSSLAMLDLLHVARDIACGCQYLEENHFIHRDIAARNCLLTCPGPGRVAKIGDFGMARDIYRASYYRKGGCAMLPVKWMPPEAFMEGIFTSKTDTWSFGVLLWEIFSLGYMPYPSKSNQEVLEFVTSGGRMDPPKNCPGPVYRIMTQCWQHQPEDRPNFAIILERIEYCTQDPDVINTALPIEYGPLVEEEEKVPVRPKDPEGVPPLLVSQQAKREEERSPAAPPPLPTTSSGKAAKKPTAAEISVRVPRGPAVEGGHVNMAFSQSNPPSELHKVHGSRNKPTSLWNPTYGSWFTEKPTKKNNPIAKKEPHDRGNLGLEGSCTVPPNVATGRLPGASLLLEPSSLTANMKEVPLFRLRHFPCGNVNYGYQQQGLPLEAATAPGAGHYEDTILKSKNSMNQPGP
Description: Inhibition of ALK (unknown origin) by TR-FRET assay
Data set [16] is described as follows: Half life of the compound at pH 7.5. Format: physicochemical.
Data set [17] concerns the target T5, Peptidyl-prolyl cis-trans isomerase FKBP1A (Homo sapiens, UniProt P62942). The data set is described as follows: Inhibition of recombinant human FKBP12 after 24 hrs by MS/MS analysis.
Data set [18] has as its target T5, Peptidyl-prolyl cis-trans isomerase FKBP1A. As to the kind of experiment: Inhibition of recombinant human FKBP12 assessed as ratio of Kinact to Ki after 24 hrs by MS/MS analysis.
Data set [19] can be described thus: Half life of the compound in aqueous buffer at pH 7.2. Format: physicochemical.

Data on 37 compounds can be found in ChEMBL document CHEMBL4350951, “Emerging and Re-Emerging Warheads for Targeted Covalent Inhibitors: Applications in Medicinal Chemistry and Chemical Biology” (J Med Chem, 2019).

By half-life is commonly meant how long it takes for the measured level to halve. The IC50 is the midpoint of a concentration-inhibition curve. A higher IC50 goes with weaker potency. Usually Ki stands for a measure of affinity in units of concentration, obtained from inhibition or displacement. In general, pKa refers to the pH at which an ionisable group is half protonated. Read a low pKa as a stronger acid or weaker base. One may read the koff as a measure of how fast the partners let go of each other. By EC50 is commonly meant the concentration needed to bring the measured effect to its halfway point.

T4 sequence (Q07820 whole entry): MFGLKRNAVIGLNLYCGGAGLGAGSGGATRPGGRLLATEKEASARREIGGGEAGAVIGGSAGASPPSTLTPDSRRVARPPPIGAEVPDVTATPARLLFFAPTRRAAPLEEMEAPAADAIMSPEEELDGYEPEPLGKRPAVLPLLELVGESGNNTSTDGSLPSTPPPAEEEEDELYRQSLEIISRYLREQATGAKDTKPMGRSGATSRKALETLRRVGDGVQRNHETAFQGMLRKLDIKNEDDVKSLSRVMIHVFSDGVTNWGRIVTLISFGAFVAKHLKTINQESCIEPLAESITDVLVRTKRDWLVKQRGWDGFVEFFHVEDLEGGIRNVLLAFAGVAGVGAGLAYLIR
T5 sequence (P62942 whole entry): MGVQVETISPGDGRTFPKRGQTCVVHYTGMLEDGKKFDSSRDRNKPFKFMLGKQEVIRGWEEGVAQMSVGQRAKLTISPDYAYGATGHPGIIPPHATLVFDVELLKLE
Sequence of Serine/threonine-protein kinase PLK1 (P53350 whole entry): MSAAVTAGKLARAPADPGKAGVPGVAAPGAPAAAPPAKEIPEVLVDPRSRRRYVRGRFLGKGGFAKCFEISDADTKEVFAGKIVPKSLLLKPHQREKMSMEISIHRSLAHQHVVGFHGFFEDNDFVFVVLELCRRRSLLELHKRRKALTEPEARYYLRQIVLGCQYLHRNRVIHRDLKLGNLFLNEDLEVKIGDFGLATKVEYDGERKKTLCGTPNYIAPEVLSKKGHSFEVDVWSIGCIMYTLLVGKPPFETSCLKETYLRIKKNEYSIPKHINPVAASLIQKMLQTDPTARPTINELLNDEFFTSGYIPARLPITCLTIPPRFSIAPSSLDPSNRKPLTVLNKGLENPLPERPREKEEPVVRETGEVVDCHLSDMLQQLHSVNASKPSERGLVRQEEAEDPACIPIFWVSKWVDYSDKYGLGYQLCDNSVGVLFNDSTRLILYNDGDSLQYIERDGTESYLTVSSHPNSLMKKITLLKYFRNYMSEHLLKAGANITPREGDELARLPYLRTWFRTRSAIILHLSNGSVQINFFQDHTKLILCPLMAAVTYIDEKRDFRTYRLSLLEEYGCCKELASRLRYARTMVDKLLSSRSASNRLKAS
Sequence of Glutathione S-transferase P (Homo sapiens) (P09211 2-210 limits assumed): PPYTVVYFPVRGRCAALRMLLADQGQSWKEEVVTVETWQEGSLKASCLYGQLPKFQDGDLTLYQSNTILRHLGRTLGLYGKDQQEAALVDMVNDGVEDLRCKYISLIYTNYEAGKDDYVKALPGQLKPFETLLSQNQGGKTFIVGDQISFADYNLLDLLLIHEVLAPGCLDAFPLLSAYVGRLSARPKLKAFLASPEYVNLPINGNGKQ
Description for cells: Cytotoxicity against human MOLP8 cells

Turning to `O=C1CS(=O)(=O)N(Cc2ccccc2)c2ccccc21`, the K in [1] was found to be 190.5 min⁻¹.

As for `C#Cc1cccc(Oc2ccc(-c3nn([C@@H]4CCCN(C(=O)/C=C/C(=O)OC)C4)c4ncnc(N)c34)cc2)c1`, in [2], the half-life is less than 0.0333 h.

In [3], `COc1ncc(-c2cc(-c3ncc(CN4CCN(C(C)C)CC4)o3)c3cn[nH]c3c2)cc1C(=O)Oc1ccc([N+](=O)[O-])cc1` had an IC50 of 0.617 nM and a Ki of 40 nM. For the same compound, the Kinact in [4] came out at 0.0055 s⁻¹.

On to `C#CCCCN1c2ccccc2C(=O)CS1(=O)=O`, for which the K in data set [1] was determined as 1700 M⁻¹ s⁻¹.

`C#Cc1cccc(Oc2ccc(-c3nn([C@@H]4CCCN(C(=O)/C=C/C(=O)OC(C)C)C4)c4ncnc(N)c34)cc2)c1` had a half-life in data set [2] of less than 0.0333 h.

Regarding `C#CCCCN(c1nc(Cl)nc(Cl)n1)[C@@H](CC(C)C)C(=O)OC`, the Ratio in data set [5] is 3.12 M⁻¹ s⁻¹.

Turning to `COc1ncc(-c2cc(-c3ncc(CN4CCN(C(C)C)CC4)o3)c3cn[nH]c3c2)cc1C(=O)Oc1ccc(C)cc1C`, the Ki in data set [3] worked out at 7800 nM.

`Nc1nc(N)c2c(OCc3ccc(S(=O)(=O)F)cc3)cccc2n1` returned an IC50 against m7GpppX diphosphatase of less than 0.02 nM.

`C#CCCCC1CCC(=O)CC1=O` (stereo not drawn): in data set [1], the K is 10 M⁻¹ s⁻¹.

On to `C#CCCCN1CCC(=O)CC1=O`, for which the K in data set [1] is 1155 M⁻¹ s⁻¹.

In the case of `O=C(O)CC=[N+]([O-])[O-]`, in [6], the pKa amounted to 9. Further, the Ratio in data set [7] was found to be 2.6 ×10⁴ /M/s.

As to `CC(=O)CC(C)=O`, the K in [1] turned out to be 3.8 min⁻¹.

As for `N#CCN(C(=O)CCCC(=O)NCCCn1c(Sc2cc3c(cc2I)OCO3)nc2c(N)ncnc21)S(=O)(=O)c1ccccc1`, in the data set on Hsp90 (human) [8], the Ratio was 2.9 ×10⁴ /M/s. The compound also came in with a Ki with Hsp90 (human) [9] of 62 nM.

`C#Cc1cccc(Oc2ccc(-c3nn([C@@H]4CCCN(C(=O)C=C)C4)c4ncnc(N)c34)cc2)c1`: the half-life in data set [2] stood at 2.8 h.

Regarding `O=C1CC(=O)c2ccccc21`, the K in data set [1] came out at 22.9 min⁻¹.

With `Cc1c(-c2cccc3c(CCCOc4cccc5ccccc45)c(C(=O)O)[nH]c23)c(COc2ccc(B(O)O)c(C=O)c2)nn1C`, the koff worked out at 0.018 s⁻¹ in data set [10] and 0.14 s⁻¹ in data set [11].

On to `O=C1CC(=O)NC(=O)N1` [BARBITURIC ACID], for which, in data set [1], the K was determined as 0.2 min⁻¹.

As for `O=C1CCC(=O)C1`, the K in data set [1] is 0.02 min⁻¹.

Turning to `C#CCCCN1CS(=O)(=O)CC1=O`, the K in data set [1] turned out to be 20 M⁻¹ s⁻¹.

With `O=C1CCCC(=O)C1`, in data set [1], the K amounted to 0.4 min⁻¹.

In the case of `CN(C)c1ccc(S(=O)(=O)F)cc1`, in data set [12], the half-life was 25.1 h.

As for `Cc1c(-c2cccc3c(CCCOc4cccc5ccccc45)c(C(=O)O)n(C)c23)c(COc2ccc(B(O)O)c(C=O)c2)nn1C`, the results for the koff in data set [10] and in data set [11] were 0.01 s⁻¹ and 0.13 s⁻¹, respectively. The same compound yielded an EC50 in “cells” of 75 nM.

For `CC(=O)CS(=O)(=O)c1ccccc1`, in [1], the K is 8.7 min⁻¹.

The compound `NC(=O)c1sc2c([n+]1[O-])C(SC[C@H](N)C(=O)O)C(SC(F)(F)F)=CC2[N+](=O)[O-]` (stereo partly drawn) came in with an IC50 in data set [13] of 400 nM. That is a sub-micromolar value.

`CS(=O)(=O)CC#N`: in [1], the K is 28.6 min⁻¹.

As for `C#CCCCN1CC(=O)CC1=O`, the K in [1] is 330 M⁻¹ s⁻¹.

In the case of `N#CCS(=O)(=O)c1ccccc1`, the K in data set [1] was found to be 78 min⁻¹.

`CCc1cc2c(cc1N1CCC(N3CCOCC3)CC1)C(C)(C)c1[nH]c3cc(C#N)ccc3c1C2=O` [ALECTINIB] had an IC50 against SRSF protein kinase 1 of 11 nM.

`O=[N+]([O-])CS(=O)(=O)c1ccccc1`: the K in data set [1] was found to be 7.8 min⁻¹.

In the case of `O=C1CCN(Cc2ccccc2)C(=O)C1`, in data set [1], the K turned out to be 86.4 min⁻¹.

In the case of `NC(=O)c1sc2c([n+]1[O-])C(SC[C@H](N)C(=O)O)C(C(F)(F)F)=CC2[N+](=O)[O-]` (stereo partly drawn), the IC50 is greater than 100000 nM in data set [14] and 2500 nM in [13].

The compound `C#Cc1cccc(Oc2ccc(-c3nn([C@@H]4CCCN(C(=O)/C=C/C(=O)O)C4)c4ncnc(N)c34)cc2)c1` yielded a half-life in data set [2] of 2.15 h.

`CCc1cc2c(cc1-c1cccc(S(=O)(=O)F)c1)C(C)(C)c1[nH]c3cc(C#N)ccc3c1C2=O` came in with an IC50 in [15] of 11 nM.

Turning to `O=S(=O)(F)c1ccccc1`, the half-life in data set [16] was 0.0833 to 0.25 h.

As to `C[C@@H]1CCN(C(=O)CC#N)C[C@@H]1N(C)c1ncnc2[nH]ccc12` [TOFACITINIB], the K in [1] came to 0.4 min⁻¹.

As to `CCC(C)(C)C(=O)C(=O)N1CCCC[C@H]1C(=O)O[C@H](CCc1ccc(OC)c(OC)c1)c1cccc(OCC(=O)NCCCCCNC(=O)c2ccc(S(=O)(=O)N(CC#N)C(=O)CCCC[C@@H]3SC[C@@H]4NC(=O)N[C@@H]43)cc2)c1`, in data set [17], the Ki was 210 nM and the Kinact came to 6.1 ×10⁻³ /s. For the same compound, the Ratio in data set [18] came to 2.9 ×10⁴ /M/s. The same compound gave a half-life in data set [19] of 43 h.

For the compound `O=C1CS(=O)(=O)Cc2ccccc21`, the K in data set [1] is 54.9 min⁻¹.
